In patent US20220257557A1, “PHARMACEUTICAL COMPOSITION FOR PREVENTING OR TREATING NEUROLOGICAL DISEASES” (GLACEUM INC., priority 2019, published 2022):

Assays:
[1] = molecular target: T1, rePON1 (PON1, paraoxonase 1) (Homo sapiens, UniProt P27169); test: Prevention of inhibition of PON1 activity by oxidized linolenic acid (TBBL substrate); assay type: biochemical; conditions: for activity at 30 µM: 30 μM compound with rePON1 30 min, then oxidized linolenic acid 2 h, TBBL substrate, normal control 100, negative control 73.64; for extent to which inhibition of rePON1 activity was prevented, compared with glabridin: compound 30 μM vs glabridin 30 μM; for extent to which inhibition of rePON1 activity was prevented, compared with glabridin / inhibition of rePON1 activity by oxidized linolenic acid: result in words; for inhibition of rePON1 activity by oxidized linolenic acid: compound 30 μM
T1 construct: purchased Thermo Corp. RP-75678
Method: Based on the fact that the activity of PON1 is inhibited when PON1 is treated with oxidized linolenic acid, an experiment was conducted to confirm the prevention of inhibition of PON1 activity. The activity of PON1 was measured using TBBL (5-thiobutyl butyrolactones) as a substrate.
Specifically, after 9.6 μl of 50 mM Tris-HCl containing 1 mM CaCl2 was added to each of […] Eppendorf tubes, 0.2 μl of each of the compounds of Formulas III-1, IV-1, V-1, IV-2, V-2, II-1, IV-3, V-3, III-2, IV-4, V-4, II-2 and III-3 and glabridine was added to each tube so that the concentration thereof was 30 μM. 0.2 μl of rePON1 (RP-75678, Thermo Corp.) was added to each of the 12 tubes and mixed. Thereafter, each of the mixtures was allowed to react at room temperature for 30 minutes, and 0.5 μl of 1 mM oxidized linolenic acid (OX-LA) dissolved in DMSO was added thereto in order to inhibit rePON1 activity, followed by reaction at room temperature for 2 hours, thus preparing solutions (I).
25 μl of 0.5 mM DTNB dissolved in 50 mM Tris-HCl containing 1 mM CaCl2 was dispensed into each well of a 384-well plate, and then 10 μl of each of the solutions (I) was dispensed into each well, and 20 μl of 2 mM TBBL dissolved in 50 mM Tris-HCl containing 1 mM CaCl2 was added to each well, thus preparing samples. The absorbance of each of the samples at 420 nm was measured using a spectrometer (SpectraMax M2) at 37° C. every 2 minutes for 1 hour.
In addition, a negative control was prepared in the same manner as the above-described method, except that, for the preparation of a solution, 0.2 μl of DMSO was added instead of the compounds of Formulas III-1, IV-1, V-1, IV-2, V-2, II-1, IV-3, V-3, III-2, IV-4, V-4, II-2 and III-3 and glabridin. Furthermore, a normal control was prepared in the same manner as the above-described method, except that, for the preparation of a solution, 0.2 μl of DMSO was added instead of the above-described compounds and glabridin and that oxidized linolenic acid was not added. The absorbance of each of the negative control and the normal control was measured.
Using SoftMax Pro software, the activity of PON1 was calculated from the absorbance using the following Equation 1, and the results are shown in Table 1 below.
Activity=(absorbancesample−absorbanceblank)/(absorbancePON1−absorbanceblank)*100 [Equation 1]

[2] = system: BV2 cells; test: iNOS and COX-2 expression after LPS (Western blot); assay type: cell-based; conditions: 3 h pretreatment (Table 3 amounts), LPS 1 μg/ml 24 h
Method: (§1) RAW264.7 cells or BV2 cells (5×10^5 cells/well) were dispensed in DMEM containing 10% heat-inactivated FBS, 10 IU/mL penicillin G, 100 μg/mL streptomycin and 2 mM L-glutamine and cultured in a 5% CO2 incubator at a temperature of 37° C.
(§2) The compound of Formula III-3, III-4, V-3, III-1, IV-1, V-1, IV-2, V-2 or II-2 was added to the RAW264.7 cells or BV2 cells, and the toxicities of the compounds were determined by MTT assay.
(§3) The pretreated cells of Experimental Example 4-1 were treated with 1 μg/ml of LPS for 24 hours, and then the expression levels of iNOS and COX-2 were observed through Western blot, and the production of NO and PGE2 was measured.

[3] = system: RAW264.7 cells; test: iNOS and COX-2 expression after LPS (Western blot); assay type: cell-based; conditions: 3 h pretreatment (Table 3 amounts), LPS 1 μg/ml 24 h
Method: as §1, §2, §3

[4] = system: BV2 cells; test: NO and PGE2 production after LPS; assay type: cell-based; conditions: 3 h pretreatment (Table 3 amounts), LPS 1 μg/ml 24 h
Method: as §1, §2, §3

[5] = system: RAW264.7 cells; test: NO and PGE2 production after LPS; assay type: cell-based; conditions: 3 h pretreatment (Table 3 amounts), LPS 1 μg/ml 24 h
Method: as §1, §2, §3

[6] = system: BV2 cells; test: IL-1β, IL-6 and TNF-α mRNA expression after LPS (RT-PCR); assay type: cell-based; conditions: 3 h pretreatment (Table 3 amounts), LPS 1 μg/ml 6 h
Method: as §1, §2
(§4) The pretreated cells of Experimental Example 4-1 were treated with 1 μg/ml of LPS for 6 hours, and then the mRNA expression level of the cytokine IL-1β, IL-6 or TNF-α produced in the inflammatory response was analyzed using RT-PCR.

[7] = system: RAW264.7 cells; test: as above; assay type: cell-based; conditions: 3 h pretreatment (Table 3 amounts), LPS 1 μg/ml 6 h
Method: as §1, §2, §4

[8] = system: RAW264.7 cells; test: Transcription of NF-κB protein (p65, p50) into nucleus after LPS (Western blot); assay type: cell-based; conditions: 3 h pretreatment (Table 3 amounts), LPS 1 μg/ml 1 h
Method: RAW264.7 cells or BV2 cells (5×10^5 cells/well) were dispensed in DMEM containing 10% heat-inactivated FBS, 10 IU/mL penicillin G, 100 μg/mL streptomycin and 2 mM L-glutamine and cultured in a 5% CO2 incubator at a temperature of 37° C. […]
(§5) The pretreated cells of Experimental Example 4-1 were treated with 1 μg/ml of LPS for 1 hour, and then the level of transcription of NF-κB protein into the nucleus of each of p65 and p50 was analyzed through Western blot.

[9] = system: BV2 cells; test: as above; assay type: cell-based; conditions: 3 h pretreatment (Table 3 amounts), LPS 1 μg/ml 1 h
Method: as §1, §2, §5

T1 sequence (P27169 whole entry): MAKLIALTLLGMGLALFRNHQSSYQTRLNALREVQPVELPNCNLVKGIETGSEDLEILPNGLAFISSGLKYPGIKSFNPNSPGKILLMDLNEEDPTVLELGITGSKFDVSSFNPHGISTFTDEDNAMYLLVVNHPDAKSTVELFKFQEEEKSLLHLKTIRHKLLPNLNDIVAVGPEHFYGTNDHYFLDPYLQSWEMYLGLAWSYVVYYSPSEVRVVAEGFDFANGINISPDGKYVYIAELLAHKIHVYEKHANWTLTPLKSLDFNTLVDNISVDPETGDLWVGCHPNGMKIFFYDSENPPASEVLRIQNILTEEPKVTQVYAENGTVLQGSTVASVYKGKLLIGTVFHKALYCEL

CC1(C)C=Cc2c(ccc3c2OCC(c2ccc(O)cc2O)=C3)O1 [Formula II-1, 4-(8,8-dimethyl-2,8-dihydropyrano[2,3-f]chromen-3-yl)benzene-1,3-diol]
activity at 30 µM [1]: 85.9% | extent to which inhibition of rePON1 activity was prevented, compared with glabridin [1]: greater | inhibition of rePON1 activity by oxidized linolenic acid [1]: prevented

CCCOc1ccc(C2=Cc3ccc4c(c3OC2)C=CC(C)(C)O4)c(O)c1 [Formula II-2, 2-(8,8-dimethyl-2,8-dihydropyrano[2,3-f]chromen-3-yl)-5-propoxyphenol]
extent to which inhibition of rePON1 activity was prevented, compared with glabridin [1]: greater | inhibition of rePON1 activity by oxidized linolenic acid [1]: prevented | expression level of COX-2 [2]: concentration-dependently decreased | expression level of iNOS [2]: concentration-dependently decreased | expression level of COX-2 [3]: concentration-dependently decreased | expression level of iNOS [3]: concentration-dependently decreased | production of NO [4]: concentration-dependently decreased | production of PGE2 [4]: concentration-dependently decreased | production of NO [5]: concentration-dependently decreased | production of PGE2 [5]: concentration-dependently decreased | mRNA expression level of IL-1β [6]: concentration-dependently decreased | mRNA expression level of IL-6 [6]: concentration-dependently decreased | mRNA expression level of TNF-α [6]: concentration-dependently decreased | mRNA expression level of IL-1β [7]: concentration-dependently decreased | mRNA expression level of IL-6 [7]: concentration-dependently decreased | mRNA expression level of TNF-α [7]: concentration-dependently decreased | level of transcription of NF-κB protein into the nucleus, p50 [8]: concentration-dependently decreased | level of transcription of NF-κB protein into the nucleus, p65 [8]: concentration-dependently decreased | level of transcription of NF-κB protein into the nucleus, p50 [9]: concentration-dependently decreased | level of transcription of NF-κB protein into the nucleus, p65 [9]: concentration-dependently decreased

CCOc1cc(O)ccc1C1COc2c(ccc3c2CCC(C)(C)O3)C1 (stereo not shown) [Formula III-2, 4-(8,8-dimethyl-2,3,4,8,9,10-hexahydropyrano[2,3-f]chromen-3-yl)-3-ethoxyphenol]
activity at 30 µM [1]: 83.8% | extent to which inhibition of rePON1 activity was prevented, compared with glabridin [1]: greater | inhibition of rePON1 activity by oxidized linolenic acid [1]: prevented

CCc1ccc(C2COc3c(ccc4c3CCC(C)(C)O4)C2)c(O)c1 (stereo not shown) [Formula III-3, 2-(8,8-dimethyl-2,3,4,8,9,10-hexahydropyrano[2,3-f]chromen-3-yl)-5-ethylphenol]
extent to which inhibition of rePON1 activity was prevented, compared with glabridin [1]: greater | inhibition of rePON1 activity by oxidized linolenic acid [1]: prevented | expression level of COX-2 [2]: concentration-dependently decreased | expression level of iNOS [2]: concentration-dependently decreased | expression level of COX-2 [3]: concentration-dependently decreased | expression level of iNOS [3]: concentration-dependently decreased | production of NO [4]: concentration-dependently decreased | production of PGE2 [4]: concentration-dependently decreased | production of NO [5]: concentration-dependently decreased | production of PGE2 [5]: concentration-dependently decreased | mRNA expression level of IL-1β [6]: concentration-dependently decreased | mRNA expression level of IL-6 [6]: concentration-dependently decreased | mRNA expression level of TNF-α [6]: concentration-dependently decreased | mRNA expression level of IL-1β [7]: concentration-dependently decreased | mRNA expression level of IL-6 [7]: concentration-dependently decreased | mRNA expression level of TNF-α [7]: concentration-dependently decreased | level of transcription of NF-κB protein into the nucleus, p50 [8]: concentration-dependently decreased | level of transcription of NF-κB protein into the nucleus, p65 [8]: concentration-dependently decreased | level of transcription of NF-κB protein into the nucleus, p50 [9]: concentration-dependently decreased | level of transcription of NF-κB protein into the nucleus, p65 [9]: concentration-dependently decreased

CCCc1ccc(C2COc3c(ccc4c3CCC(C)(C)O4)C2)c(O)c1 (stereo not shown) [Formula III-4, 2-(8,8-dimethyl-2,3,4,8,9,10-hexahydropyrano[2,3-f]chromen-3-yl)-5-propylphenol]
expression level of COX-2 [2]: concentration-dependently decreased | expression level of iNOS [2]: concentration-dependently decreased | expression level of COX-2 [3]: concentration-dependently decreased | expression level of iNOS [3]: concentration-dependently decreased | production of NO [4]: concentration-dependently decreased | production of PGE2 [4]: concentration-dependently decreased | production of NO [5]: concentration-dependently decreased | production of PGE2 [5]: concentration-dependently decreased | mRNA expression level of IL-1β [6]: concentration-dependently decreased | mRNA expression level of IL-6 [6]: concentration-dependently decreased | mRNA expression level of TNF-α [6]: concentration-dependently decreased | mRNA expression level of IL-1β [7]: concentration-dependently decreased | mRNA expression level of IL-6 [7]: concentration-dependently decreased | mRNA expression level of TNF-α [7]: concentration-dependently decreased | level of transcription of NF-κB protein into the nucleus, p50 [8]: concentration-dependently decreased | level of transcription of NF-κB protein into the nucleus, p65 [8]: concentration-dependently decreased | level of transcription of NF-κB protein into the nucleus, p50 [9]: concentration-dependently decreased | level of transcription of NF-κB protein into the nucleus, p65 [9]: concentration-dependently decreased

CCCc1ccc([C@@H]2COc3c(ccc4c3CCC(C)(C)O4)C2)c(O)c1 [Formula IV-3, (R)-2-(8,8-dimethyl-2,3,4,8,9,10-hexahydropyrano[2,3-f]chromen-3-yl)-5-propylphenol]
activity at 30 µM [1]: 90.6% | extent to which inhibition of rePON1 activity was prevented, compared with glabridin [1]: greater | inhibition of rePON1 activity by oxidized linolenic acid [1]: prevented

CCCCOc1ccc([C@@H]2COc3c(ccc4c3CCC(C)(C)O4)C2)c(O)c1 [Formula IV-4, (R)-2-(8,8-dimethyl-2,3,4,8,9,10-hexahydropyrano[2,3-f]chromen-3-yl)-5-butoxyphenol]
activity at 30 µM [1]: 94.1% | extent to which inhibition of rePON1 activity was prevented, compared with glabridin [1]: greater | inhibition of rePON1 activity by oxidized linolenic acid [1]: prevented

CCCCOc1ccc([C@H]2COc3c(ccc4c3CCC(C)(C)O4)C2)c(O)c1 [Formula V-4, (S)-2-(8,8-dimethyl-2,3,4,8,9,10-hexahydropyrano[2,3-f]chromen-3-yl)-5-butoxyphenol]
activity at 30 µM [1]: 94.9% | extent to which inhibition of rePON1 activity was prevented, compared with glabridin [1]: greater | inhibition of rePON1 activity by oxidized linolenic acid [1]: prevented
